US7700590B2, “Antibacterial agents” (University of New Orleans Research and Technology …, priority 2006, dated 2010)
Converted amounts (≈) assume the structure as drawn.

Assays:
Assay type in all cases: cell-based
[1] = system: Gram positive bacteria, including S. aureus, E. faecalis and B. subtilis; experiment: Antibacterial activity, statements not tied to one strain; conditions: strain not singled out
Method: (§1) The antibacterial activities of the compounds synthesized as described above were evaluated by assay against several strains of Gram positive bacteria from the American Type Culture Collection (ATCC), Staphylococcus aureus 29213, Staphylococcus aureus 43300, Enterococcus faecalis 29212, and Bacillus subtilis PY79. The minimum inhibition concentration (MIC, μg/mL) of each compound synthesized was tested against four bacterial strains. The inhibition of bacterial growth was monitored using a standard colorimeter at 600 nm using a serial dilution at concentrations 238, 119, 59.5, 29.8, 14.9, 7.44, 3.72, 1.86, 0.93, 0.46 μg/ml. Chloramphenicol was tested as a control, and inhibits bacteria growth (MIC90) at 7.44, 7.44, 4.0, 2.0 μg/mL, respectively, for the four bacterial strains listed in Table 1. In Table 1, the MICs are reported as the concentrations at 50% inhibition of bacteria growth, and N stands for no inhibition.

[2] = system: Staphylococcus aureus 29213; experiment: Antibacterial growth inhibition assay (serial dilution, colorimeter at 600 nm), S. aureus 29213; parameters: key to MIC, concentration at 50% inhibition of bacteria growth, S. aureus 29213: N stands for no inhibition; conditions: for MIC, concentration at 50% inhibition of bacteria growth, S. aureus 29213: 50% growth inhibition, methicillin susceptible strain, serial dilution 238-0.46 μg/ml
Method: as §1

[3] = system: Enterococcus faecalis 29212; experiment: Antibacterial growth inhibition assay (serial dilution, colorimeter at 600 nm), E. faecalis 29212; conditions: for MIC, concentration at 50% inhibition of bacteria growth, E. faecalis 29212: 50% growth inhibition, vancomycin susceptible strain, serial dilution 238-0.46 μg/ml
Method: as §1

[4] = system: Bacillus subtilis PY79; experiment: Antibacterial growth inhibition assay (serial dilution, colorimeter at 600 nm), B. subtilis PY79; parameters: key to MIC, concentration at 50% inhibition of bacteria growth, B. subtilis PY79: N stands for no inhibition; conditions: for MIC, concentration at 50% inhibition of bacteria growth, B. subtilis PY79: 50% growth inhibition, serial dilution 238-0.46 μg/ml
Method: as §1

[5] = system: Staphylococcus aureus 43300; experiment: Antibacterial growth inhibition assay (serial dilution, colorimeter at 600 nm), S. aureus 43300; parameters: key to MIC, concentration at 50% inhibition of bacteria growth, S. aureus 43300: N stands for no inhibition; conditions: for MIC, concentration at 50% inhibition of bacteria growth, S. aureus 43300: 50% growth inhibition, methicillin resistant strain, serial dilution 238-0.46 μg/ml
Method: as §1

SMILES	antibacterial activity in words [1]	MIC90 ([2]; Staphylococcus aureus, S. aureus 29213, read-out: MIC90 (control))	MIC90 ([3]; Enterococcus faecalis, E. faecalis 29212, read-out: MIC90 (control))	MIC90 ([4]; Bacillus subtilis, B. subtilis PY79, read-out: MIC90 (control))	MIC90 ([5]; Staphylococcus aureus, S. aureus 43300, read-out: MIC90 (control))	MIC, concentration at 50% inhibition of bacteria growth, S. aureus 29213 [2]	MIC, concentration at 50% inhibition of bacteria growth, E. faecalis 29212 [3]	MIC, concentration at 50% inhibition of bacteria growth, B. subtilis PY79 [4]	MIC, concentration at 50% inhibition of bacteria growth, S. aureus 43300 [5]	antibacterial activity in words ([2]; S. aureus 29213)	antibacterial activity in words ([5]; S. aureus 43300)
CCN1CC[C@@H](CN(Cc2ccccc2)Cc2ccc(Cl)c(Cl)c2)OC1=O (stereo in doubt) [Compound A11, 6-{[benzyl-(3,4-dichloro-benzyl)-amino]-methyl}-3-ethyl-[1,3]oxazinan-2-one]	good activity	–	–	–	–	–	–	–	–	–	–
O=C(N[C@H](CO)[C@H](O)c1ccc([N+](=O)[O-])cc1)C(Cl)Cl [Chloramphenicol, reference compound]	–	7.44 µg/mL (≈ 23 µM)	4 µg/mL (≈ 12.4 µM)	2 µg/mL (≈ 6.19 µM)	7.44 µg/mL (≈ 23 µM)	–	–	–	–	–	–
CCN1CC[C@@H](CN(Cc2ccccc2)Cc2ccc([N+](=O)[O-])cc2)OC1=O [Compound A1]	–	–	–	–	–	N	45.0 µg/mL	N	N	–	–
CCN1CC[C@@H](CN(Cc2ccccc2)Cc2cccc([N+](=O)[O-])c2)OC1=O [Compound A2]	–	–	–	–	–	90.0 µg/mL	47.0 µg/mL	108 µg/mL	22.0 µg/mL	–	–
CCN1CC[C@@H](CN(Cc2ccccc2)Cc2ccccc2[N+](=O)[O-])OC1=O [Compound A3]	–	–	–	–	–	72.0 µg/mL	43.0 µg/mL	100 µg/mL	100 µg/mL	–	–
CCN1CC[C@@H](CN(Cc2ccccc2)Cc2ccc(C#N)cc2)OC1=O [Compound A4]	–	–	–	–	–	180 µg/mL	12.0 µg/mL	10.0 µg/mL	59.5 µg/mL	–	–
CCN1CC[C@@H](CN(Cc2ccccc2)Cc2cccc(C#N)c2)OC1=O [Compound A5]	–	–	–	–	–	238 µg/mL	45.0 µg/mL	238 µg/mL	N	–	–
CCN1CC[C@@H](CN(Cc2ccccc2)Cc2ccccc2C#N)OC1=O [Compound A6]	–	–	–	–	–	130 µg/mL	33.0 µg/mL	160 µg/mL	180 µg/mL	–	–
CCN1CC[C@@H](CN(Cc2ccccc2)Cc2ccc(F)cc2)OC1=O [Compound A7]	–	–	–	–	–	64.0 µg/mL	35.0 µg/mL	42.5 µg/mL	47.0 µg/mL	–	–
CCN1CC[C@@H](CN(Cc2ccccc2)Cc2ccc(F)cc2F)OC1=O [Compound A8]	–	–	–	–	–	45.0 µg/mL	59.5 µg/mL	38.0 µg/mL	50.5 µg/mL	–	–
CCN1CC[C@@H](CN(Cc2ccccc2)Cc2c(F)cccc2F)OC1=O [Compound A9]	–	–	–	–	–	47.0 µg/mL	59.5 µg/mL	77.0 µg/mL	70.0 µg/mL	–	–
CCN1CC[C@@H](CN(Cc2ccccc2)Cc2cc(F)cc(F)c2)OC1=O [Compound A10]	–	–	–	–	–	40.0 µg/mL	37.0 µg/mL	43.0 µg/mL	45.0 µg/mL	–	–
CCN1CC[C@@H](CN(Cc2ccccc2)Cc2ccc3ccccc3c2)OC1=O [Compound A12]	–	–	–	–	–	15.0 µg/mL	13.0 µg/mL	29.0 µg/mL	N	promising activity	no activity
CCN1CC[C@@H](CN(Cc2ccccc2)Cc2cccc(OC)c2)OC1=O [Compound A16]	–	–	–	–	–	90.0 µg/mL	80.5 µg/mL	95.0 µg/mL	90.0 µg/mL	–	–
CN1CC[C@@H](CN(Cc2ccccc2)Cc2ccc([N+](=O)[O-])cc2)OC1=O [Compound B1]	–	–	–	–	–	81.0 µg/mL	119 µg/mL	98.0 µg/mL	N	–	–
CN1CC[C@@H](CN(Cc2ccccc2)Cc2cccc([N+](=O)[O-])c2)OC1=O [Compound B2]	–	–	–	–	–	138 µg/mL	119 µg/mL	238 µg/mL	N	–	–
CN1CC[C@@H](CN(Cc2ccccc2)Cc2ccccc2[N+](=O)[O-])OC1=O [Compound B3]	–	–	–	–	–	179 µg/mL	238 µg/mL	238 µg/mL	N	–	–
CN1CC[C@@H](CN(Cc2ccccc2)Cc2ccc(C#N)cc2)OC1=O [Compound B4]	–	–	–	–	–	200 µg/mL	238 µg/mL	238 µg/mL	N	–	–
CN1CC[C@@H](CN(Cc2ccccc2)Cc2cccc(C#N)c2)OC1=O [Compound B5]	–	–	–	–	–	180 µg/mL	7.40 µg/mL	180 µg/mL	238 µg/mL	–	–
CN1CC[C@@H](CN(Cc2ccccc2)Cc2ccccc2C#N)OC1=O [Compound B6]	–	–	–	–	–	166 µg/mL	59.5 µg/mL	180 µg/mL	180 µg/mL	–	–
CN1CC[C@@H](CN(Cc2ccccc2)Cc2ccc(F)cc2)OC1=O [Compound B7]	–	–	–	–	–	87.1 µg/mL	120 µg/mL	95.0 µg/mL	119 µg/mL	–	–
CN1CC[C@@H](CN(Cc2ccccc2)Cc2ccc(F)cc2F)OC1=O [Compound B8]	–	–	–	–	–	50.0 µg/mL	59.5 µg/mL	55.0 µg/mL	72.0 µg/mL	–	–
